From patent US20250074955A1, “MODIFIED LOW MOLECULAR WEIGHT GLUTENIN SUBUNIT AND USES THEREOF” (Ukko Inc., priority 2022, published 2025) come the findings set out here.

One experiment concerns the target HLA-DQ2.5 (Homo sapiens, UniProt P01909+P01920, A45G/A70V/D89A/E106A/E77G/E98D/H199R/L107V/N214S/P84L/P87L/T103K/T109R/T172A/T60S/V78E/V99I/Y58L/Y62S/Y69I/Y79F). The experiment can be described thus: MHC class II binding competition assay with radiolabeled probe peptide. To be noted: competition with MHC class II bound radiolabeled probe peptide, purified MHC, 2-4 days incubation.

In another experiment the target is HLA-DQ8 (Homo sapiens, UniProt P01909+P01920, A209T/A45G/C70Q/D89A/DUP78-78/E183D/E77G/F237L/G63E/H199R/I129T/K197E/L178F/L74F/L98V/Q57E/Q76R/S185I/S97I/T217I/T49S/V73L/Y58L). The description is as above. The following applies: competition with MHC class II bound radiolabeled probe peptide, purified MHC, 2-4 days incubation.
The target in another experiment is HLA-DQ2.2 (Homo sapiens, UniProt P01909+P01920, A45G/A70V/C70K/D167G/D89A/E106A/E183D/E77G/E98D/F237L/F77L/G63E/H199R/I129T/K197E/L107V/L178F/L74F/N214S/P84L/P87L/Q57E/Q76R/R75H/S185I/S97I/T103K/T109R/T172A/T60S/V73L/V78E/V99I/Y48F/Y58L/Y62S/Y69I/Y79F). The experiment is described as above. The following applies: competition with MHC class II bound radiolabeled probe peptide, purified MHC, 2-4 days incubation.

The target in the next experiment is T1, HLA-DQ7.5 (Homo sapiens, UniProt P01909+P01920).
T1 construct: made in house
The experiment is described as above. The following applies: competition with MHC class II bound radiolabeled probe peptide, purified MHC, 2-4 days incubation. As to the method: In-vitro testing of modified gluten peptides was performed by a Major histocompatibility complex (MHC class II) binding assay (Sidney J. et. al. Current protocols in immunology 100.1 (2013)). Briefly, competition assays using different concentrations of WT and modified low molecular weight glutenin subunit (LMW-GS) peptides were conducted by diluting the peptides in NP40 buffer, and incubation for 2-4 days with purified MHC and a radiolabeled known MHC binding peptide (peptide probe). MHC class II molecules were purified by affinity chromatography, and peptides were radiolabeled using the chloramine T method. After the incubation period, the bound and unbound radiolabeled species were separated, and their relative amounts were determined by either size-exclusion gel-filtration chromatography or monoclonal antibody capture of MHC. The percentage of bound radioactivity was then determined. For each modified peptide, IC50 of WT and modified peptide were calculated. The known gluten peptide epitopes were analyzed for MHC binding as a positive control, both in the non-deamidated and in the deamidated form.
Tables I and II list the measured IC50 values from competition assays between the specified peptides and an MHC class II bound probe peptide.

In another experiment the target is HLA-DQ2.5 (human). The experiment can be described thus: competition with radiolabeled probe peptide, purified MHC class II.
For another experiment, the target named is HLA-DQ8 (human). The experiment is described as above.
The next experiment has as its target HLA-DQ2.2 (human). Described as above.

Where no end group is shown, it is not given here. Some results are limits rather than exact numbers.

In general, IC50 refers to the concentration that inhibits the measured activity by half. Read a low IC50 as greater potency in that assay. GPPFSKQTEPVISQQ [SEQ ID NO: 186]: the IC50 at HLA-DQ2.5 is over 40 µM; on HLA-DQ8, 38.2 µM; at HLA-DQ2.2, over 40 µM; on HLA-DQ7.5 it was over 40 µM.
For QGPPFSKQTQPVIPQ [SEQ ID NO: 72], the IC50 at HLA-DQ2.5, on HLA-DQ8, at HLA-DQ2.2 and on HLA-DQ7.5 was over 40 µM throughout.
On to QPPDSHQQHSPGSQQ [SEQ ID NO: 84], for which the IC50 on HLA-DQ2.5, on HLA-DQ8, on HLA-DQ2.2 and on HLA-DQ7.5 was over 40 µM each time.
For QPPSSEQQHSPPSQQ [SEQ ID NO: 81], the IC50 at HLA-DQ2.5 is over 40 µM; at HLA-DQ8 it was 31.9 µM; at HLA-DQ2.2 it was 39.8 µM; at HLA-DQ7.5 it was over 40 µM.
In the case of QPSFSRQQKQPQSQQ [SEQ ID NO: 86], the IC50 on HLA-DQ2.5, at HLA-DQ8, on HLA-DQ2.2 and on HLA-DQ7.5 was over 40 µM each time.
On HLA-DQ7.5, QQPAFSRQHQPSLPQ [SEQ ID NO: 73] showed a half-maximal inhibitory concentration (IC50) of over 40 µM.
Turning to QQPFPEQQRSQFSQQ [SEQ ID NO: 85], the IC50 is over 40 µM at HLA-DQ2.5, 35.8 µM on HLA-DQ8, over 40 µM on HLA-DQ2.2 and over 40 µM at HLA-DQ7.5.
As to QQPPDSHQEHSPGPQ [SEQ ID NO: 187], the IC50 at HLA-DQ2.5, at HLA-DQ8, at HLA-DQ2.2 and on HLA-DQ7.5 was over 40 µM each time.
As to QQPPFPRQHQQFPQQ [SEQ ID NO: 74], the IC50 on HLA-DQ2.5, on HLA-DQ8, at HLA-DQ2.2 and on HLA-DQ7.5 was over 40 µM each time.
On to QQPPFSHQRPPFSQQ [SEQ ID NO: 70], for which the IC50 on HLA-DQ2.5 is over 40 µM; at HLA-DQ8, 39.1 µM; on HLA-DQ2.2 it was over 40 µM; on HLA-DQ7.5, over 40 µM.
Turning to QQPPFSKQEQQQPIL [SEQ ID NO: 71], the IC50 on HLA-DQ2.5 is over 40 µM; on HLA-DQ8, 29.8 µM; at HLA-DQ2.2, over 40 µM; on HLA-DQ7.5, over 40 µM.
As for QQPPSSEQEHSPPSQ [SEQ ID NO: 79], the IC50 at HLA-DQ7.5 is over 40 µM.
For QQSPFPEQEQQHQQL [SEQ ID NO: 183], the IC50 at HLA-DQ2.5 is 32.4 µM; on HLA-DQ8, 39.9 µM; at HLA-DQ2.2, over 40 µM; on HLA-DQ7.5, over 40 µM.
Take QQSPFSRQEKSPFSQ [SEQ ID NO: 78]: the IC50 at HLA-DQ2.5, on HLA-DQ8, at HLA-DQ2.2 and on HLA-DQ7.5 was over 40 µM each time.
Regarding QSPFSRQQKSPFSQQ [SEQ ID NO: 80], the IC50 on HLA-DQ2.5, at HLA-DQ8, on HLA-DQ2.2 and on HLA-DQ7.5 was over 40 µM throughout.
For the molecule QPPFSEQQESPFSQQ [… (SEQ ID NO: 69)], the IC50 with HLA-DQ2.5 (human) stood at 0.158 µM; in the experiment with HLA-DQ8 (human), 1.14 µM.
In the experiment with HLA-DQ8 (human), QQPFPEQQRSQFSQQ [… (SEQ ID NO: 85)] showed an IC50 of 35.8 µM.
In the experiment with HLA-DQ2.5 (human), QQPAFSRQHQPSLPQ [… (SEQ ID NO: 73)] returned an IC50 of 30.4 µM.
Consider QQPPFSEQEQPSSQQ [… (SEQ ID NO: 77)], for which the IC50 with HLA-DQ2.5 (human) was found to be 32.3 µM; with HLA-DQ8 (human), 31.5 µM.
Regarding QPPSSEQQHSPPSQQ [… (SEQ ID NO: 81)], the IC50 in the experiment with HLA-DQ2.2 (human) turned out to be 39.8 µM; with HLA-DQ8 (human), 31.9 µM.
Take QQPPFSHQRPPFSQQ [… (SEQ ID NO: 70)]: the IC50 with HLA-DQ8 (human) turned out to be 39.1 µM.
In the experiment with HLA-DQ8 (human), QSPFPEQQEQHQQLQ [… (SEQ ID NO: 185)] had an IC50 of 37.9 µM.
Take QQPPFSKQEQQQPIL [… (SEQ ID NO: 71)]: the IC50 with HLA-DQ8 (human) came out at 29.8 µM.
With QQSPFPEQEQQHQQL [… (SEQ ID NO: 183)], the values for the IC50 with HLA-DQ2.5 (human) and in the experiment with HLA-DQ8 (human) were 32.4 µM and 39.9 µM, respectively.
In the case of GPPFSKQTEPVISQQ [… (SEQ ID NO: 186)], the IC50 with HLA-DQ8 (human) amounted to 38.2 µM.
The molecule QQPPFWQHQPPFSQQ [… (SEQ ID NO: 76)] registered an IC50 with HLA-DQ2.5 (human) of 37.4 µM.
Molecule QPFFSHQQRSGFSQQ [… (SEQ ID NO: 83)] came in with an IC50 with HLA-DQ8 (human) of 39.2 µM.
